{"source": "patent US20040029927A1", "about": "“Use of a compound in providing refreshedness on waking and a method for the treatment of grogginess therewith” (The Boots Company PLC, priority 2001, published 2004)", "key": {"[1]": {"tested_on": "patients with temporary sleep disturbance", "test": "Clinical trial, Loughborough sleep log: feeling of refreshedness 15 minutes after waking (5-point scale)", "assay_type": "in vivo, human", "protocol": "(§1) The efficacy of triprolidine in enabling a patient to feel refreshed or alert upon waking after taking triprolidine prior to sleeptime was investigated using patients with a history of sleep disorders and utilising triprolidine prepared in accordance with example 3.\n(§2) A multiple-dose, placebo-controlled, parallel-group, double-blind, randomised study investigating the effects of 2.5 mg and 5 mg triprolidine in patients with temporary sleep disturbance.\n(§3) Male and Female candidates aged 18 years and above were recruited to one of five research centres by means of local advertising. Candidates were screened by means of a telephone questionnaire and selected candidates invited for interview at the research centre. Key inclusion criteria used to select candidates for the study were:\n(§4) The candidates came to the research centre on Thursday or Friday and were fitted with a wrist actimeter (AW4 from Cambridge Technology) to establish a baseline measure for SDI and were provided with diary cards to record subjective assessments for the Loughborough Sleep Log and the Karolinska Sleepiness Scale. They returned to the investigational site on the Monday and were issued with the study compositions (2.5 mg triprolidine, 5 mg triprolidine or placebo). The investigator telephoned a central randomisation centre where the subject was randomised to a particular treatment group using a dynamic balanced randomisation algorithm. The subject was given three doses of their allocated study medication and instructed to take a single dose of two tablets 20 minutes before they intended to go to sleep on three consecutive evenings, commencing that evening. The diary cards for the Loughborough Sleep Log and Karolinska Sleepiness Scale were asked to be completed on waking.\nCandidates were required to complete a questionnaire 15 minutes after awaking on the feeling of refreshedness assessed on a 5-point scale, the Loughborough sleep log.\n(§5) In the trial, patients were tested during a seven day period and the results have been analysed for a mean of three days in the middle of this period. The effects of triprolidine at dose level 2.5 mg and 5.0 mg are compared with placebo in table 1.\nGenerally the treatment groups were well balanced in terms of the demographic data. Unless otherwise mentioned all group data was analysed using ANOVA. In two cases, namely, how the patient felt 15 minutes after awakening in the Loughborough Sleep Log and the Karolinska Sleepiness Scale at 20 minutes, the two variables were analysed using ANCOVA by including the weekend and the mean of Friday/Saturday/Sunday night as a covariate. The method was a closed test procedure (Williams' test). Each of the tests were to be conducted at the 5% level. The analysis of the secondary endpoints was similarly conducted using the Student's t-tests on parameter estimates taken from the analysis of variance model presented above.\n(§6) The following is a copy of the “Loughborough sleep log questionnaire” which was used by patients in the study and provided the data for datasets a and b in table 1"}, "volunteers": {"tested_on": "volunteers", "conditions": "single doses 10 mg or 20 mg sustained release at bedtime; cited from earlier work"}, "[2]": {"tested_on": "patients with temporary sleep disturbance", "test": "Clinical trial, Loughborough sleep log: last night I slept (quality of sleep, 5-point scale)", "assay_type": "in vivo, human", "protocol": "as §1, §2, §3, §4, §5, §6"}, "[3]": {"tested_on": "patients with temporary sleep disturbance", "test": "Clinical trial, Karolinska 9-point sleepiness scale", "assay_type": "in vivo, human", "protocol": "as §1\n(a) Karolinska scale as defined in: Int. J. Neuroscience 52 29-37 (1990); and\nas §2, §3, §4\nA daytime sleepiness assessment was also made 20 minutes, 2 hours and 4 hours after awaking on the Karolinska 9-point scale, i.e. the sleepiness scale.\nKarolinska's sleepiness scale is set out below and the results for placebo, 2.5 and 5.0 mg doses of triprolidine are shown in tables 4 and 5. Table 4 relates to the number of individuals experiencing scales 1, 2 or 3 on the Karolinska scale and table 5 relates to the number of individuals experiencing scales 8 and 9.\nKarolinska Sleepiness Scale\nThis will be completed 20 minutes after awakening and then at 2 hours and 4 hours following the first assessment on days 5, 6, 7 and 8."}}, "note": "Structures can show the parent of a compound that is named as a salt."}
{"smiles": "Cc1ccc(/C(=C\\CN2CCCC2)c2ccccn2)cc1", "note": "[TRP.HCl.H2O]", "values": [{"measurement": "15 mins after awaking (1- very refreshed 5- very tired), Mean", "setting": "[1]; 2.5 mg, Mean of 3", "value": 3.24}, {"measurement": "15 mins after awaking (1- very refreshed 5- very tired), Mean", "setting": "[1]; 2.5 mg, Mon", "value": 3.33}, {"measurement": "Awoke Very Refreshed or Refreshed Responses", "setting": "[1]; 2.5 mg, Monday", "value": 23, "unit": "%"}, {"measurement": "15 mins after awaking (1- very refreshed 5- very tired), Mean", "setting": "[1]; 2.5 mg, Tues", "value": 3.23}, {"measurement": "Awoke Very Refreshed or Refreshed Responses", "setting": "[1]; 2.5 mg, Tuesday", "value": 23, "unit": "%"}, {"measurement": "15 mins after awaking (1- very refreshed 5- very tired), Mean", "setting": "[1]; 2.5 mg, Wed", "value": 3.18}, {"measurement": "Awoke Very Refreshed or Refreshed Responses", "setting": "[1]; 2.5 mg, Wednesday", "value": 25.8, "unit": "%"}, {"measurement": "feeling of refreshedness 15 minutes after waking versus placebo", "setting": "[1]; 2.5 mg, p<0.05", "value": "more refreshed than those on placebo"}, {"measurement": "15 mins after awaking (1- very refreshed 5- very tired), Mean", "setting": "[1]; 5 mg, Mean of 3", "value": 3.59}, {"measurement": "15 mins after awaking (1- very refreshed 5- very tired), Mean", "setting": "[1]; 5 mg, Mon", "value": 3.72}, {"measurement": "Awoke Very Refreshed or Refreshed Responses", "setting": "[1]; 5 mg, Monday", "value": 11.5, "unit": "%"}, {"measurement": "15 mins after awaking (1- very refreshed 5- very tired), Mean", "setting": "[1]; 5 mg, Tues", "value": 3.56}, {"measurement": "Awoke Very Refreshed or Refreshed Responses", "setting": "[1]; 5 mg, Tuesday", "value": 8.2, "unit": "%"}, {"measurement": "15 mins after awaking (1- very refreshed 5- very tired), Mean", "setting": "[1]; 5 mg, Wed", "value": 3.54}, {"measurement": "Awoke Very Refreshed or Refreshed Responses", "setting": "[1]; 5 mg, Wednesday", "value": 14.8, "unit": "%"}, {"measurement": "sleep onset latency (time required to fall asleep) compared with placebo", "setting": "volunteers", "value": "did not significantly alter"}, {"measurement": "total sleep time compared with placebo", "setting": "volunteers", "value": "no effect"}, {"measurement": "wakefulness during sleep compared with placebo", "setting": "volunteers", "value": "no effect"}, {"measurement": "last night I slept (1- extremely well, 5- extremely badly), Mean", "setting": "[2]; 2.5 mg, Mean of 3", "value": 2.73}, {"measurement": "last night I slept (1- extremely well, 5- extremely badly), Mean", "setting": "[2]; 2.5 mg, Mon", "value": 2.67}, {"measurement": "Last Night I Slept Extremely Well or Very Well Responses", "setting": "[2]; 2.5 mg, Monday", "value": 41.4, "unit": "%"}, {"measurement": "last night I slept (1- extremely well, 5- extremely badly), Mean", "setting": "[2]; 2.5 mg, Tues", "value": 2.71}, {"measurement": "Last Night I Slept Extremely Well or Very Well Responses", "setting": "[2]; 2.5 mg, Tuesday", "value": 41.8, "unit": "%"}, {"measurement": "last night I slept (1- extremely well, 5- extremely badly), Mean", "setting": "[2]; 2.5 mg, Wed", "value": 2.81}, {"measurement": "Last Night I Slept Extremely Well or Very Well Responses", "setting": "[2]; 2.5 mg, Wednesday", "value": 37.9, "unit": "%"}, {"measurement": "last night I slept (1- extremely well, 5- extremely badly), Mean", "setting": "[2]; 5 mg, Mean of 3", "value": 2.69}, {"measurement": "last night I slept (1- extremely well, 5- extremely badly), Mean", "setting": "[2]; 5 mg, Mon", "value": 2.49}, {"measurement": "Last Night I Slept Extremely Well or Very Well Responses", "setting": "[2]; 5 mg, Monday", "value": 50.9, "unit": "%"}, {"measurement": "last night I slept (1- extremely well, 5- extremely badly), Mean", "setting": "[2]; 5 mg, Tues", "value": 2.93}, {"measurement": "Last Night I Slept Extremely Well or Very Well Responses", "setting": "[2]; 5 mg, Tuesday", "value": 28.8, "unit": "%"}, {"measurement": "last night I slept (1- extremely well, 5- extremely badly), Mean", "setting": "[2]; 5 mg, Wed", "value": 2.64}, {"measurement": "Last Night I Slept Extremely Well or Very Well Responses", "setting": "[2]; 5 mg, Wednesday", "value": 39.3, "unit": "%"}, {"measurement": "percentage of people feeling alert, very alert or extremely alert on waking versus placebo", "setting": "[3]; 2.5 mg", "value": "greater percentage"}, {"measurement": "percentage of people feeling sleepy, some effort, or very sleepy, great effort to keep awake, on waking versus placebo", "setting": "[3]; 2.5 mg", "value": "lower percentage"}, {"measurement": "residual hangover effects/morning grogginess", "setting": "[3]; 2.5 mg", "value": "no evidence of residual hangover effects/morning grogginess"}, {"measurement": "I feel (i) sleepy, some effort or (ii) very sleepy, a great effort to keep awake (Karolinska scales 8 and 9)", "setting": "[3]; 2.5 mg, Monday", "value": 11.5, "unit": "%"}, {"measurement": "I feel extremely alert, very alert or alert (Karolinska scales 1, 2 or 3)", "setting": "[3]; 2.5 mg, Monday", "value": 21.3, "unit": "%"}, {"measurement": "I feel (i) sleepy, some effort or (ii) very sleepy, a great effort to keep awake (Karolinska scales 8 and 9)", "setting": "[3]; 2.5 mg, Tuesday", "value": 13.1, "unit": "%"}, {"measurement": "I feel extremely alert, very alert or alert (Karolinska scales 1, 2 or 3)", "setting": "[3]; 2.5 mg, Tuesday", "value": 21.3, "unit": "%"}, {"measurement": "I feel (i) sleepy, some effort or (ii) very sleepy, a great effort to keep awake (Karolinska scales 8 and 9)", "setting": "[3]; 2.5 mg, Wednesday", "value": 6.5, "unit": "%"}, {"measurement": "I feel extremely alert, very alert or alert (Karolinska scales 1, 2 or 3)", "setting": "[3]; 2.5 mg, Wednesday", "value": 21.0, "unit": "%"}, {"measurement": "I feel (i) sleepy, some effort or (ii) very sleepy, a great effort to keep awake (Karolinska scales 8 and 9)", "setting": "[3]; 5 mg, Monday", "value": 12.5, "unit": "%"}, {"measurement": "I feel extremely alert, very alert or alert (Karolinska scales 1, 2 or 3)", "setting": "[3]; 5 mg, Monday", "value": 6.3, "unit": "%"}, {"measurement": "I feel (i) sleepy, some effort or (ii) very sleepy, a great effort to keep awake (Karolinska scales 8 and 9)", "setting": "[3]; 5 mg, Tuesday", "value": 17.5, "unit": "%"}, {"measurement": "I feel extremely alert, very alert or alert (Karolinska scales 1, 2 or 3)", "setting": "[3]; 5 mg, Tuesday", "value": 9.5, "unit": "%"}, {"measurement": "I feel (i) sleepy, some effort or (ii) very sleepy, a great effort to keep awake (Karolinska scales 8 and 9)", "setting": "[3]; 5 mg, Wednesday", "value": 12.7, "unit": "%"}, {"measurement": "I feel extremely alert, very alert or alert (Karolinska scales 1, 2 or 3)", "setting": "[3]; 5 mg, Wednesday", "value": 17.5, "unit": "%"}, {"measurement": "daytime sleepiness", "setting": "[3]; either dose (2.5 mg or 5 mg)", "value": "lack of daytime sleepiness"}]}
